# Measurements published in paper PMC8138767, “Intrinsically disordered substrates dictate SPOP subnuclear localization and ubiquitination activity” (The Journal of Biological Chemistry, 2021).
# “And” between values parts separate entries of the source, which are not always exact repeats. Equal values may be shown once. Where no end group is shown, it is not given here.
# Key:
# [1] = system: SPOP–MATH substrate-binding groove; assay: 1H,15N HSQC NMR titration of 15N–SPOP–MATH with Pdx1 peptides; set-up: species or system human
# Protocol: NMR data collection and analysis
# NMR data were collected on Bruker Avance III 500, 600, or 850 MHz spectrometers equipped with TCI triple-resonance cryoprobes. All data collection and initial processing were carried out in TopSpin (Bruker). NMR experiments on all proteins were collected in 50 mM sodium phosphate, pH 6.5, 50 mM sodium chloride, 5 mM DTT, 0.01% sodium azide, and 5% D2O unless otherwise noted.
# Addition of Pdx1 peptides into ^15N–SPOP–MATH was monitored by sensitivity-enhanced ^1H, ^15N HSQC. The peptides were mixed in a 4:1 peptide:SPOP mole ratio with between 0.1 and 0.2 mM ^15N–SPOP–MATH. Each experiment consisted of 16 scans and 2048 × 256 complex data points. Spectral comparison was carried out in NMRFAM-Sparky using the assigned ^15N-SPOP-MATH spectrum as a reference. Integrated peak intensities before and after the addition of peptide were compared and normalized within each dataset, and the percent change (1 − Ibound/Iunbound) was plotted on the surface of published SPOP–MATH cocrystal structures (PDB IDs: 3IVV or 6F8F) ([25], [33]) using PyMol (PyMOL Molecular Graphics System, Version 2.1.1, Schrödinger, LLC). In each case, surface coloring corresponds to thresholds of intensity change, where the greatest resonance intensity changes are reflected by the lightest color. […]
# SPOP28–359 = biological target: T1, SPOP28–359 (Homo sapiens, UniProt O43791); assay: Competition fluorescence anisotropy, displacement of f-Puc from oligomeric SPOP28–359; format: binding; conditions: competition FA; 40 nM f-Puc, 6 μM SPOP28–359; 50 mM sodium phosphate pH 6.5, 50 mM NaCl, 5 mM DTT, 1% BSA, 0.01% Triton X-100; complete competitive binding model; ± standard deviation of three independent replicates (Table S4)
# T1 construct: A plasmid encoding His–SUMO–SPOP human residues 28 to 359; His-SUMO (N, cleaved yes); made in house; host or cells: E. coli Rosetta BL-21(DE3)
# Source text: An Escherichia coli codon-optimized DNA sequence encoding amino acids 205 to 283 of the human Pdx1 sequence (Pdx1-C) in the multiple cloning site of pET49b(+) was purchased from GeneArt (Thermo Fisher). The pET49b(+) backbone encodes for N-terminal glutathione S-transferase and 6X His tags, followed by a 3C protease recognition motif. In all experiments described herein, a mutant containing an exogenous tryptophan at the N terminus of the human Pdx1-C sequence was used for the purposes of quantitation. Mutations in Pdx1-C were generated by Q5 site-directed mutagenesis (New England Biolabs) with primers designed on NEBbasechanger.com according to the manufacturer protocol. […]
# All FA experiments were conducted in 50 mM sodium phosphate, pH 6.5, 50 mM sodium chloride, 5 mM DTT, 1% BSA, and 0.01% Triton X-100. In all experiments, the source of fluorescence signal was f-Puc purchased from GenScript, at a final concentration of 40 nM. […] The fluorescence polarization of each well was measured (from which FA was calculated) using either a TECAN Infinite M1000 Pro or BioTek Synergy 4 fluorometer. […] FA data points were fit to a complete competitive binding model ([23]) to determine dissociation constants using in-house Python scripts (see Quantification and statistical analysis). […]
# [2] = biological target: T2, SPOP–MATH (residues 28–166) (Homo sapiens, UniProt O43791); assay: Competition fluorescence anisotropy, displacement of f-Puc from SPOP–MATH; format: binding; conditions: competition FA; 40 nM f-Puc, 6 μM SPOP–MATH; 50 mM sodium phosphate pH 6.5, 50 mM NaCl, 5 mM DTT, 1% BSA, 0.01% Triton X-100; complete competitive binding model; ± standard deviation of three independent replicates (Table S4)
# T2 construct: glutathione S-transferase (GST) (N, cleaved yes); 6X His (N, cleaved yes); made in house; host or cells: E. coli BL-21(DE3)
# Source text: An Escherichia coli codon-optimized DNA sequence encoding amino acids 205 to 283 of the human Pdx1 sequence (Pdx1-C) in the multiple cloning site of pET49b(+) was purchased from GeneArt (Thermo Fisher). The pET49b(+) backbone encodes for N-terminal glutathione S-transferase and 6X His tags, followed by a 3C protease recognition motif. In all experiments described herein, a mutant containing an exogenous tryptophan at the N terminus of the human Pdx1-C sequence was used for the purposes of quantitation. Mutations in Pdx1-C were generated by Q5 site-directed mutagenesis (New England Biolabs) with primers designed on NEBbasechanger.com according to the manufacturer protocol. Similarly, an E. coli–optimized DNA sequence encoding residues 28 to 166 of human SPOP (SPOP–MATH) was purchased in pET49b(+) from GeneArt. […] A plasmid encoding His–SUMO–SPOP human residues 28 to 359 harboring a tobacco etch virus protease recognition site directly N terminal to the beginning of the native SPOP protein sequence was generated previously ([21]).
# All FA experiments were conducted in 50 mM sodium phosphate, pH 6.5, 50 mM sodium chloride, 5 mM DTT, 1% BSA, and 0.01% Triton X-100. In all experiments, the source of fluorescence signal was f-Puc purchased from GenScript, at a final concentration of 40 nM. For direct FA measurements, SPOP–MATH or SPOP28–359 of concentrations between 0.001 and 300 μM was added to wells of 96- or 384-well plates containing f-Puc and buffer. For competition-mode experiments, serial dilutions of each competitor (Pdx1 peptide or recombinant protein) were prepared ranging from ∼0.01 μM to ∼2 mM (concentration range varied based on peptide solubility) in wells of 96- or 384-well plates containing 40 nM f-Puc and 6 μM SPOP–MATH or SPOP28–359. The fluorescence polarization of each well was measured (from which FA was calculated) using either a TECAN Infinite M1000 Pro or BioTek Synergy 4 fluorometer. All experiments were performed with at least three technical replicates. FA data points were fit to a complete competitive binding model ([23]) to determine dissociation constants using in-house Python scripts (see Quantification and statistical analysis).
# All titrations were performed in triplicate for rigor. Direct FA titrations were performed to determine the dissociation constants of the fluorescent probe toward SPOP constructs. Direct titration data were fit according to equation 6 in ([54]). Competition mode titration data were fit according to the fitting function in ([23]). Average dissociation constants and standard error from the mean for all constructs from competition experiments may be found in Table S4. The python scripts used in plotting and fitting may be found at https://github.com/idpemery/spop-pdx1.
# [3] = biological target: f-Puc, fluorescein-labeled peptide of the SPOP substrate Puc (residues 91-106); assay: fluorescence polarisation; direct fluorescence anisotropy titration: SPOP construct (0.001-300 μM) added to 40 nM f-Puc; 50 mM sodium phosphate pH 6.5, 50 mM NaCl, 5 mM DTT, 1% BSA, 0.01% Triton X-100
# [4] = biological target: f-Puc (fluorescein-labeled Puc peptide); assay: fluorescence polarisation; direct fluorescence anisotropy: SPOP construct 0.001-300 μM added to 40 nM f-Puc; 50 mM sodium phosphate pH 6.5, 50 mM NaCl, 5 mM DTT, 1% BSA, 0.01% Triton X-100
# Sequence of SPOP-MATH (human SPOP residues 28-166) (O43791 other isoform, or with tags, fused parts or gaps): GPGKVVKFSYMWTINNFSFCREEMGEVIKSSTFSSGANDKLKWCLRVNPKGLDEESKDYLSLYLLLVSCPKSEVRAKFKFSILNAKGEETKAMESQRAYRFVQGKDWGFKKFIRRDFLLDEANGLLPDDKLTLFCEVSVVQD
# Sequence of SPOP28-359 (human SPOP residues 28-359) (O43791 28-359): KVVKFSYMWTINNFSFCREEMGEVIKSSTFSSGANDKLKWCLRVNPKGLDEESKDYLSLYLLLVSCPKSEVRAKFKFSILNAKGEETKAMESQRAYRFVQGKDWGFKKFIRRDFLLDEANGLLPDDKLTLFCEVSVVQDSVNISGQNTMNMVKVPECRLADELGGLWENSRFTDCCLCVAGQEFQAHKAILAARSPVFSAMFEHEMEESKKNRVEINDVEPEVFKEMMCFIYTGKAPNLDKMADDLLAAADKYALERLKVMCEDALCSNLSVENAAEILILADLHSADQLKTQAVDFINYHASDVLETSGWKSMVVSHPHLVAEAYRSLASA
# Sequence of SPOP–MATH (human SPOP residues 28–166) (O43791 other isoform, or with tags, fused parts or gaps): as the sequence (O43791 other isoform, or with tags, fused parts or gaps) above
# T2 sequence (O43791 28-166): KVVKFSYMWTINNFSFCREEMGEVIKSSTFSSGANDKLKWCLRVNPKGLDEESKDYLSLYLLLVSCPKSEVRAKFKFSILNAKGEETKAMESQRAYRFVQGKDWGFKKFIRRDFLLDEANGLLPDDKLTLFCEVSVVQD
# T1 sequence (O43791 28-359): as the sequence (O43791 28-359) above
substance,measurement,setting,value
"Ac-GVAEPEQDCAVTSGEELLALPP [Pdx1–SBM1, SB motif 1 peptide of Pdx1 (residues 224–236)]",relative SB affinity from mixed-peptide NMR,[1]; SBM1 and SBM2 peptides added to 15N-SPOP-MATH in equimolar ratios,higher SB affinity of Pdx1–SBM1 than Pdx1–SBM2
same,HSQC spectral changes in SPOP–MATH,"[1]; peptide:15N-SPOP–MATH 4:1, 0.1–0.2 mM 15N–SPOP–MATH, 50 mM sodium phosphate pH 6.5, 50 mM NaCl, 5 mM DTT",spectral changes are primarily localized to the substrate-binding groove
"ENLACDEVTSTTSSST [Puc, reference compound]",Kd,SPOP28–359,2600 ± 1000 nM
same,Kd,[2],2600 ± 400 nM
SPOP28-359 (human SPOP residues 28-359) (from UniProt O43791 28-359) (domain or fragment),Kd,[3],2550 nM and 2620 nM
SPOP-MATH (human SPOP residues 28-166) (from UniProt O43791 28-166) (domain or fragment),Kd,[3],2620 nM and 2550 nM
SPOP–MATH (human SPOP residues 28–166) (from UniProt O43791 28-166) (domain or fragment),Kd,[4],2600 nM
